Source: US20090143438A1, “Novel Pyridine Derivative Having Anti-Helicobacter Pylori Activity” (Arigen Pharmaceuticals, Inc., priority 2006, published 2009)
Values after ≈ are worked out from the molar mass of the structure shown.

Experiments:
[1] = tested on: Helicobacter pylori NCTC11637; details: standard strain NCTC11637; data from Table 6 of JP-A No. 7-69888; cited from earlier work
[2] = tested on: Helicobacter pylori NCTC11916; details: standard strain NCTC11916; data from Table 6 of JP-A No. 7-69888; cited from earlier work
H. pylori, ATCC 43504 = assay: Antibacterial power test, Columbia agar, MIC; format: cell-based, Helicobacter pylori; details: Helicobacter pylori, ATCC43504, 72 h, 37° C., pH 7.0, 3 days, read on 4th day, read-out: MIC, in vitro anti-Helicobacter pylori activity
Method: An in vitro test was performed in a Columbia agar medium using a standard strain of H. pylori, ATCC 43504. […] Each of the test objects was dissolved in a 1% DMSO solution. Furthermore, as antibiotic control drugs, ampicillin from the penicillin family (control drug 1), gentamycin from the aminoglycoside family (control drug 2), tetracycline from the tetracycline family (control drug 3), and ofloxacin from the new quinolone family (control drug 4) were used.

| MIC (H. pylori, ATCC 43504) | SMILES | MIC [1] | MIC [2] |
| --- | --- | --- | --- |
|  | COc1ccc2[nH]c([S+]([O-])Cc3ncc(C)c(OC)c3C)nc2c1 (stereo not shown) [(a), 5-methoxy-2-(4-methoxy-3,5-dimethylpyridin-2-yl)methylsulfinyl-1H-benzimidazole] | 50 µg/mL (≈ 145 µM) | 50 µg/mL (≈ 145 µM) |
|  | COc1ccc2[nH]c(SCc3ncc(C)c(OC)c3C)nc2c1 [(b), 5-methoxy-2-(4-methoxy-3,5-dimethylpyridin-2-yl)methylthio-1H-benzimidazole] | 12.5 µg/mL (≈ 37.9 µM) | 12.5 µg/mL (≈ 37.9 µM) |
|  | Cc1c(OCC(F)(F)F)ccnc1C[S+]([O-])c1nc2ccccc2[nH]1 (stereo not shown) [(c), 2-[3-methyl-4-(2,2,2-trifluoroethoxy)pyridine-2-yl]methylsulfinyl-1H-benzimidazole] | 6.25 µg/mL (≈ 16.9 µM) | 12.5 µg/mL (≈ 33.8 µM) |
|  | Cc1c(OCC(F)(F)F)ccnc1CSc1nc2ccccc2[nH]1 [(d), 2-[3-methyl-4-(2,2,2-trifluoroethoxy)pyridine-2-yl]methylthio-1H-benzimidazole] | 1.56 µg/mL (≈ 4.41 µM) | 1.56 µg/mL (≈ 4.41 µM) |
|  | COCCCOc1ccnc(C[S+]([O-])c2nc3ccccc3[nH]2)c1C.[Na] (stereo not shown) [(e), 2-[4-(3-methoxypropoxy)-3-methylpyridin-2-yl]methylsulfinyl-1H-benzimidazole sodium salt] | 0.8 µg/mL | 1.56 µg/mL |
|  | COCCCOc1ccnc(CSc2nc3ccccc3[nH]2)c1C [(f), 2-[4-(3-methoxypropoxy)-3-methylpyridin-2-yl]methylthio-1H-benzimidazole] | 0.8 µg/mL (≈ 2.33 µM) | 1.56 µg/mL (≈ 4.54 µM) |
| 10 µg/mL (≈ 31.7 µM) | Cc1c(OCCO)ccnc1CSc1nc2ccccc2[nH]1 [Comparative Compound 1, 2-[{4-(2-hydroxyethoxy)-3-methylpyridin-2-yl}methylthio]-1H-benzimidazole, reference compound] |  |  |
